Measurements reported in the NIST ThermoML archive (doi:10.1021/je4000857).
“And” between values parts separate entries of the source, which are not always exact repeats. Identical values can stand only once. ± gives the expanded uncertainty stated by the source.

Conditions: Liquid

Row | SMILES | vapor or sublimation pressure (253.3 K) | vapor or sublimation pressure (258.11 K) | vapor or sublimation pressure (263.23 K) | vapor or sublimation pressure (264.05 K) | vapor or sublimation pressure (268.17 K) | vapor or sublimation pressure (271.05 K) | vapor or sublimation pressure (278.05 K) | vapor or sublimation pressure (282.74 K) | vapor or sublimation pressure (292.81 K) | vapor or sublimation pressure (303.04 K) | vapor or sublimation pressure (308.04 K) | vapor or sublimation pressure (312.78 K) | vapor or sublimation pressure (322.96 K)
1 | FC(F)(F)C(F)(F)C(F)(F)F [octafluoropropane] | 194 ± 3 kPa | 238 ± 3 kPa | 287 ± 3 kPa | 298 ± 4 kPa and 297 ± 4 kPa | 343 ± 4 kPa | 383 ± 4 kPa | 483 ± 5 kPa | 553 ± 6 kPa | 743 ± 7 kPa | 995 ± 10 kPa | 1124 ± 11 kPa | 1256 ± 12 kPa | 1604 ± 16 kPa
2 | CC [ethane] |  |  |  | 1862 ± 36 kPa |  | 2275 ± 43 kPa | 2700 ± 51 kPa |  |  | 4600 ± 87 kPa |  |  | 
